System: E. coli
Experiment: Bacterial resistance test: solid 1 mm cube placed in E. coli solution, growth followed by OD600
Details: E. coli solution with starting OD600 0.45

Measured: OD600 value

Description: B) The block was putted into an E. coli solution with an OD600 value of 0.45, and the growth of the bacteria was observed.
The antibacterial properties of bacterial in the experimental groups 1 to 5 and the control group were tested, and the OD600 values represent the growth of bacterial cells.

CCc1occc(=O)c1O [experimental group 3, ethyl maltol]
lowest: at 12 hours, control group 0.55 | at 24 hours, control group 0.48 | at 2 days, control group 0.61 | at 3 days, control group 0.47

Reference: US20220315771A1, “REVERSIBLE CULTURAL RELIC PROTECTION MATERIAL WITH FUNCTION OF INHIBITING GROWTH OF BACTERIA AND MOLD” (SHANGHAI UNIVERSITY, priority 2019, published 2022)
